From PubChem BioAssay (NCI)
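Exposure lasted 48 hours, with cells grown in 96-well plates and compounds tested at five concentrations. TGI: concentration producing complete growth inhibition.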

What was measured:
Experiment in all cases: NCI anticancer screen, dose series, 48 h
MDA-MB-231 breast = tested on: MDA-MB-231 breast
OVCAR-8 ovarian = tested on: OVCAR-8 ovarian
SNB-19 CNS = tested on: SNB-19 CNS
HS 578T breast = tested on: HS 578T breast
HCC-2998 colon = tested on: HCC-2998 colon
TK-10 renal = tested on: TK-10 renal
HL-60(TB) leukemia = tested on: HL-60(TB) leukemia
SNB-75 CNS = tested on: SNB-75 CNS
U251 CNS = tested on: U251 CNS
NCI-H522 lung = tested on: NCI-H522 lung
UO-31 renal = tested on: UO-31 renal

Cn1c(-c2cccs2)cc(-c2cccs2)c1-c1ccco1
TGI (MDA-MB-231 breast): > 100 µM | TGI (OVCAR-8 ovarian): > 100 µM | TGI (SNB-19 CNS): > 100 µM | TGI (HS 578T breast): > 91.7 µM | TGI (HCC-2998 colon): > 100 µM | TGI (TK-10 renal): > 100 µM | TGI (HL-60(TB) leukemia): > 75.7 µM | TGI (SNB-75 CNS): > 100 µM | TGI (U251 CNS): > 100 µM | TGI (NCI-H522 lung): 88.2 µM | TGI (UO-31 renal): > 100 µM

Cc1nc2c(nc1C)-c1c(c3c(n1C)C(=O)CCC3)C(=O)C2=O
TGI (MDA-MB-231 breast): 0.803 µM | TGI (OVCAR-8 ovarian): 0.638 µM | TGI (SNB-19 CNS): 2.82 µM | TGI (HS 578T breast): 9.62 µM | TGI (HCC-2998 colon): 4.06 µM | TGI (TK-10 renal): 4.51 µM | TGI (HL-60(TB) leukemia): 0.508 µM | TGI (SNB-75 CNS): 2.14 µM | TGI (U251 CNS): 0.533 µM | TGI (NCI-H522 lung): 1.6 µM | TGI (UO-31 renal): 1.29 µM

CC(C)(C)c1cc2c(O)c(c1)Cc1cc(C(C#N)(Cc3ccc4ccccc4c3)Cc3ccc4ccccc4c3)cc(c1O)Cc1cc(C(C)(C)C)cc(c1O)Cc1cc(C(C#N)(Cc3ccc4ccccc4c3)Cc3ccc4ccccc4c3)cc(c1O)C2
TGI (MDA-MB-231 breast): > 100 µM | TGI (OVCAR-8 ovarian): > 100 µM | TGI (SNB-19 CNS): > 100 µM | TGI (HS 578T breast): > 100 µM | TGI (HCC-2998 colon): > 100 µM | TGI (TK-10 renal): > 100 µM | TGI (HL-60(TB) leukemia): > 100 µM | TGI (SNB-75 CNS): > 100 µM | TGI (U251 CNS): > 100 µM | TGI (NCI-H522 lung): > 100 µM | TGI (UO-31 renal): > 100 µM

Cc1ccc2c(n1)C(=O)C=CC2=O
TGI (MDA-MB-231 breast): 19.5 µM | TGI (OVCAR-8 ovarian): 33.7 µM | TGI (SNB-19 CNS): 34 µM | TGI (HS 578T breast): > 78.5 µM | TGI (HCC-2998 colon): 33.5 µM | TGI (TK-10 renal): 6.21 µM | TGI (HL-60(TB) leukemia): > 22.5 µM | TGI (SNB-75 CNS): 38.2 µM | TGI (U251 CNS): 40.6 µM | TGI (NCI-H522 lung): 3.51 µM | TGI (UO-31 renal): 10.4 µM

Cc1ccc2c(sc(-c3ccc4c(c3)sc(-c3ccc5c(c3)sc(-c3ccc(N(C)C)cc3)[n+]5C)[n+]4C)[n+]2C)c1S(=O)(=O)O (tested in a mixture with another compound)
TGI (MDA-MB-231 breast): > 100 µM | TGI (OVCAR-8 ovarian): > 100 µM | TGI (SNB-19 CNS): > 100 µM | TGI (HS 578T breast): > 100 µM | TGI (HCC-2998 colon): > 100 µM | TGI (TK-10 renal): > 100 µM | TGI (HL-60(TB) leukemia): > 100 µM | TGI (SNB-75 CNS): > 100 µM | TGI (U251 CNS): > 100 µM | TGI (NCI-H522 lung): > 100 µM | TGI (UO-31 renal): > 100 µM

O=C(Nc1c(C(F)(F)F)cc(-c2ccccc2)[nH]c1=O)N1CCOCC1
TGI (MDA-MB-231 breast): > 100 µM | TGI (OVCAR-8 ovarian): > 100 µM | TGI (SNB-19 CNS): > 100 µM | TGI (HS 578T breast): > 100 µM | TGI (HCC-2998 colon): > 100 µM | TGI (TK-10 renal): > 100 µM | TGI (HL-60(TB) leukemia): 79.5 µM | TGI (SNB-75 CNS): > 100 µM | TGI (U251 CNS): > 100 µM | TGI (NCI-H522 lung): > 100 µM | TGI (UO-31 renal): > 100 µM

O=C(/C=C1\C[C@H]2C=Nc3ccccc3C(=O)N2C1)NCCCCNC(=O)/C=C1\C[C@H]2C=Nc3ccccc3C(=O)N2C1
TGI (MDA-MB-231 breast): 0.986 µM | TGI (OVCAR-8 ovarian): 9.76 µM | TGI (SNB-19 CNS): 31.8 µM | TGI (HS 578T breast): > 88.7 µM | TGI (HCC-2998 colon): 32.9 µM | TGI (TK-10 renal): 23.8 µM | TGI (HL-60(TB) leukemia): 12.6 µM | TGI (SNB-75 CNS): 31.9 µM | TGI (U251 CNS): 11.3 µM | TGI (NCI-H522 lung): 3.57 µM | TGI (UO-31 renal): 5.77 µM
